In the NIST ThermoML archive (doi:10.1016/j.tca.2013.04.003):
Numbers after ± are expanded uncertainties.

Experiment: molar enthalpy of vaporization or sublimation
Conditions: Liquid, TGA

With `CCCCCCn1cc[n+](C)c1.[Cl-]` [1-hexyl-3-methylimidazolium chloride] the molar enthalpy (432.4 K) was 34.4 ± 0.717 kcal/mol.
In the case of `CCn1cc[n+](C)c1.[Cl-]` [1-ethyl-3-methylimidazolium chloride], the molar enthalpy (432.1 K) is reported as 30.3 ± 0.717 kcal/mol.
